{"source": "patent US20110311601A1", "about": "“ANTIMICROBIAL MEDICAL DEVICES” (priority 2010, published 2011)", "system": "Escherichia coli strain DB3.1", "assay": "agar diffusion assay (zone of inhibition)", "assay_type": "cell-based", "protocol": "Agar diffusion assay. In the agar diffusion assay the microorganisms were exposed immovable to the potential bio-active substance by inclusion in an agar containing medium. The use of a nutrient limited minimal medium led first to a limitation of the development of the bacteria. The test substances were dependent on the application form pipetted into the punched recess in the agar or placed with a test sample into the punched recess in the agar and spread out during incubation time by diffusion into the agar. After incubation the nutrient limitation of the bacteria was revoked. The determination of the bioactivity was performed by measuring the diameter of the raised zone of inhibition surrounding the recess.\nTherefore, Escherichia coli strain DB3.1 (Invitrogen, Cat. No. 11782-018) was used. E. coli was streaked from a glycerol stock onto a Brain Heart Infusion (BHI) agar plate (3.7% (w/v) BHI Bouillon, 1.5% (w/v) Agar) and was grown overnight at 37° C. Subsequently one colony was used to inoculate 8 ml of TSB medium (Caso Bouillon 3% (w/v)) without any antibiotics in a culture tube which was then incubated shaking (120 rpm) over night at 37° C. 50 μl of this pre-culture was used to inoculate again 8 ml of TSB medium (Caso Bouillon 3% (w/v)) without any antibiotics in a fresh culture tube which was then incubated shaking (125 rpm) for 3.5 h at 37° C. The OD600 of the bacterial suspension was then 0.500.\nThe underlay medium (11% (v/v) 0.1 M sodium phosphate buffer pH 7.2, 1% (v/v) TSB-medium, 0.02% (v/v) Tween, 1% (w/v) agarose in distilled water, pH 7.2), a minimal medium, was liquefied using micro waves and cooled to about 47° C. 10 ml underlay medium with 500 μl bacterial suspension were mixed in a 50 ml falcon tube by slight swirling and then was poured into a petri dish. The cooling time was first 15 min at room temperature and then 30 min at 4° C. Afterwards the recesses for test liquids (diameter 3 mm) and test materials (diameter 6 mm), respectively, were punched out from the underlay medium by using a punching-dye. 5 μl test liquid was pipetted per recess and the test materials were laid into the recess or were slid under the underlay medium, respectively. The lid of the plate was closed by parafilm and the plate was incubated over night at 37° C. The next day, the overlay medium (3.4% (w/v) casein peptone, 0.6% (w/v) soy flour peptone, 0.5% (w/v) di-potassium hydrogen phosphate, 1% (w/v) NaCl, 0.5% (w/v) glucose, 1% (w/v) agarose in distilled water) was liquefied using micro waves and cooled to about 47° C. In every Petri dish 10 ml overlay medium were poured on the underlay medium. After cooling for 5 minutes the plate was closed by the lid and incubated at 37° C. for about 2-3 h. For evaluation, the diameter of the raised zones of inhibition surrounding the recesses was measured.\nThe potential of the chosen biopolymers to release bio-active hβD2 after coating/mixing them with hβD2, was determined by a screening in the diffusion assay (as described in Example 5). The assay allows a correlation between the released amounts of bio-active molecules and the resulting zone of inhibition surrounding the releasing source. A comparison with the effect of directly applied, defined amounts of hβD2 allows an evaluation of the release potential of the test materials.\nIn the assay films made of 1% hyaluronic acid and 1% alginic acid, gelatin leaves, gelatinized agarose drops of 1% agarose solution and films of the dried drops were used. Additionally three variants of a polylactide matrix (uncoated, coated with collagen, coated with collagen and chondroitin sulphate) and collagen scaffolds were tested.\nThe samples were prepared as described in example 5 and treated with 10 μg hβD2. For the comparison between the effect of directly applied hβD2 amounts and the effect of hβD2-coated samples a standard series for 0.1, 1, 5 and 10 μg hβD2 was performed. The control was formed by the 0.01% acetic acid. […]", "note": "Where no end group is shown, it is not given here."}
{"substance": "human β-defensin-2 (GIGDPVTCLKSGAICHPVFCPRRYKQIGTCGLPGTKCCKKP; ends and bridges not checked; cysteine pairing not given here) [hβD2, recombinant hβD2]", "values": [{"measurement": "diameter of zone of inhibition", "setting": "0.1 μg hβD2 directly applied", "result": 6, "unit": "mm"}, {"measurement": "diameter of zone of inhibition", "setting": "1 μg hβD2 directly applied", "result": 9, "unit": "mm"}, {"measurement": "diameter of zone of inhibition", "setting": "5 μg hβD2 directly applied", "result": 12, "unit": "mm"}, {"measurement": "diameter of zone of inhibition", "setting": "10 μg hβD2 directly applied", "result": 15, "unit": "mm"}, {"measurement": "formation of a zone of inhibition", "setting": "10 μg hβD2 on alginic acid film", "result": "did not exhibit the formation of a zone of inhibition"}, {"measurement": "formation of a zone of inhibition", "setting": "10 μg hβD2 on hyaluronic acid film", "result": "did not exhibit the formation of a zone of inhibition"}]}
